Values of other authors, collected in US6562243B2 (priority 2001, dated 2003).

System: Legionella

[Ag] [silver]
silver level that kills Legionella: 20 ppb
